Structures are written as SMILES. Bridge positions count the residues as written; N and C are the ends. Square brackets hold non-standard residues; d marks the D form. Peptide text beside a SMILES is read from it. Hyp = O=C(O)[C@@H]1C[C@@H](O)CN1; Cit = NC(=O)NCCC[C@H](N)C(=O)O Where only a bound is given, the exact number is not on record here.

Series [1] can be described thus: Physical stability of peptide analogues (Thioflavin T fibrillation). It counts as physicochemical. Particulars: maximum ThT signal normalized between hAMY maximum and buffer background; 40° C., shaking, four days; pH 7 per table title. An outline of the steps:
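Maximum ThT emission at 480 nm, after LOESS smoothing, is given as percent of the span from buffer background to hAMY. Conditions: 50 mM buffer at pH 4 or 7, 4 μM dye, 40 °C, repeated shaking, readings every 10 min for four days.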

For a further series, the target named is hAM1 receptor (Homo sapiens, UniProt O60895+Q16602). Description: cAMP assay for in vitro receptor activation, hAM1-R. It counts as cell-based. To be noted: cAMP assay, hAM1 receptor; read-out: hAM1R EC50. An outline of the steps:
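Stable hAM1 cells (monoclonal) plated 8000/well; buffer DPBS, 0.05% casein, 0.5 mM IBMX; cAMP read-out.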
(In general: Changes in cAMP serve as a functional read-out for many G protein-coupled receptors.)

hAM1 receptor, sequence (Q16602 23-461): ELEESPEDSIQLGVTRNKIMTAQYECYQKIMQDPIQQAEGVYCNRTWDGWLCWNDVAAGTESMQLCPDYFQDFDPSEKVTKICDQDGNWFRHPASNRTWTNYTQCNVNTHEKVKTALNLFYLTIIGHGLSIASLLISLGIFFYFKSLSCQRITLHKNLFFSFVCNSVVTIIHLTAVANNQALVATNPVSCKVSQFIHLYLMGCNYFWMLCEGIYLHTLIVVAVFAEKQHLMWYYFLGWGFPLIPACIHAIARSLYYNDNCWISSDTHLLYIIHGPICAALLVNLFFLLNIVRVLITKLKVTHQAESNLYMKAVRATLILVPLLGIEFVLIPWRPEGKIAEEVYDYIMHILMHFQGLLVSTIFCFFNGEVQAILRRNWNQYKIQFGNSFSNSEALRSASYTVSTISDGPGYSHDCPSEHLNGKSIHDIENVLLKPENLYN
hAM1 receptor, sequence (O60895 43-175 partner): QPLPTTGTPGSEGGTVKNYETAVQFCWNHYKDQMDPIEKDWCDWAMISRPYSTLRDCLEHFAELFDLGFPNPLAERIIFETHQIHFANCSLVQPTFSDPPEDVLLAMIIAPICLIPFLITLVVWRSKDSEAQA

Turning to `CC[C@H](C)[C@H](NC(=O)[C@H](CCC(N)=O)NC(=O)[C@H](Cc1c[nH]cn1)NC(=O)[C@H](C)NC(=O)[C@H](CC(C)C)NC(=O)[C@H](CCCNC(N)=O)NC(=O)[C@H](CCC(N)=O)NC(=O)[C@@H](NC(=O)[C@@H](NC(=O)[C@@H]1CSSC[C@H](NC(=O)CN)C(=O)N[C@@H](CCCNC(=N)N)C(=O)N[C@@H]([C@@H](C)O)C(=O)NCC(=O)N[C@@H]([C@@H](C)O)C(=O)N1)[C@@H](C)O)C(C)C)C(=O)N[C@@H](Cc1ccc(O)cc1)C(=O)N[C@@H](CCC(N)=O)C(=O)N[C@@H](Cc1ccccc1)C(=O)N[C@H](C(=O)N[C@@H](CC(=O)O)C(=O)N[C@@H](CCCCN)C(=O)N[C@@H](CC(=O)O)C(=O)N[C@@H](CCCCN)C(=O)N[C@@H](CC(=O)O)C(=O)N[C@@H](CC(N)=O)C(=O)N[C@H](C(=O)N[C@@H](C)C(=O)N1CCC[C@H]1C(=O)N[C@@H](CCCNC(=N)N)C(=O)N[C@@H](CO)C(=O)N[C@@H](CC(N)=O)C(=O)N[C@H](C(=O)N[C@@H](CO)C(=O)N1CCC[C@H]1C(=O)N[C@@H](CC(N)=O)C(=O)NCC(=O)N1C[C@H](O)C[C@H]1C(N)=O)C(C)C)C(C)C)[C@@H](C)O` [compound 304] (H-GCRTGTCTVQ[Cit]LAHQIYQFTDKDKDNVAPRSNVSPNG[Hyp]-NH2; disulfide 2-7), in series [1], the “Max ThT signal (%)” value is 22.350%. Also, at hAM1 receptor, the EC50 (commonly the midpoint of the concentration-response curve) is more than 5 µM.

Take `CC(C)C[C@H](NC(=O)[C@H](Cc1c[nH]c2ccccc12)NC(=O)[C@H](CCC(N)=O)NC(=O)[C@@H](NC(=O)[C@@H](NC(=O)[C@@H]1CSSC[C@H](NC(=O)CN)C(=O)N[C@@H](CCCNC(=N)N)C(=O)N[C@@H](Cc2ccccc2)C(=O)NCC(=O)N[C@@H]([C@@H](C)O)C(=O)N1)[C@@H](C)O)C(C)C)C(=O)N[C@@H](C)C(=O)N[C@@H](CC(N)=O)C(=O)N[C@@H](Cc1ccccc1)C(=O)N[C@@H](CC(C)C)C(=O)N[C@@H](Cc1ccc(O)cc1)C(=O)N[C@@H](CCC(N)=O)C(=O)N[C@@H](Cc1ccccc1)C(=O)N[C@H](C(=O)N[C@@H](CC(=O)O)C(=O)N[C@@H](CCCCN)C(=O)N[C@@H](CC(=O)O)C(=O)N[C@@H](CCCCN)C(=O)N[C@@H](CC(=O)O)C(=O)N[C@@H](CC(N)=O)C(=O)N[C@H](C(=O)N[C@@H](C)C(=O)N1CCC[C@H]1C(=O)N[C@@H](CCCNC(=N)N)C(=O)N[C@H](C(=O)N[C@@H](CC(N)=O)C(=O)N[C@H](C(=O)NCC(=O)N1CCC[C@H]1C(=O)N[C@@H](CCC(N)=O)C(=O)NCC(=O)N[C@@H](Cc1ccc(O)cc1)C(N)=O)C(C)C)[C@@H](C)O)C(C)C)[C@@H](C)O` [compound 311] (H-GCRFGTCTVQWLANFLYQFTDKDKDNVAPRTNVGPQGY-NH2; disulfide 2-7; N-terminus assumed): the “Max ThT signal (%)” value in series [1] was determined as 6.450%. Further, the EC50 on hAM1 receptor was more than 5 µM.

On to `CC[C@H](C)[C@H](NC(=O)[C@H](CCC(N)=O)NC(=O)[C@H](CCC(=O)O)NC(=O)[C@H](C)NC(=O)[C@H](CC(C)C)NC(=O)[C@H](Cc1c[nH]c2ccccc12)NC(=O)[C@H](CCC(N)=O)NC(=O)[C@@H](NC(=O)[C@@H](NC(=O)[C@@H]1CSSC[C@H](NC(=O)[C@@H](N)CCCCN)C(=O)N[C@@H](CC(N)=O)C(=O)N[C@@H]([C@@H](C)O)C(=O)N[C@@H](C)C(=O)N[C@@H]([C@@H](C)O)C(=O)N1)[C@@H](C)O)C(C)C)C(=O)N[C@@H](Cc1ccc(O)cc1)C(=O)N[C@@H](CCC(N)=O)C(=O)N[C@@H](Cc1ccccc1)C(=O)N[C@H](C(=O)N[C@@H](CC(=O)O)C(=O)N[C@@H](CCCCN)C(=O)N[C@@H](CC(=O)O)C(=O)N[C@@H](CCCCN)C(=O)N[C@@H](CC(=O)O)C(=O)N[C@@H](CC(N)=O)C(=O)N[C@H](C(=O)N[C@@H](C)C(=O)N1CCC[C@H]1C(=O)N1CCC[C@H]1C(=O)N[C@@H](Cc1ccc(O)cc1)C(=O)N[C@@H](CC(N)=O)C(=O)N[C@@H](CCC(=O)O)C(=O)NCC(=O)N[C@@H](CO)C(=O)N[C@@H](CC(N)=O)C(=O)NCC(=O)N1C[C@H](O)C[C@H]1C(N)=O)C(C)C)[C@@H](C)O` [compound 321] (H-KCNTATCTVQWLAEQIYQFTDKDKDNVAPPYNEGSNG[Hyp]-NH2; disulfide 2-7; N-terminus assumed), for which the “Max ThT signal (%)” value in series [1] is recorded as 21.700%. Further, at hAM1 receptor, the EC50 is more than 5 µM.

On to `CC[C@H](C)[C@H](NC(=O)[C@H](CCC(N)=O)NC(=O)[C@H](Cc1c[nH]cn1)NC(=O)[C@H](C)NC(=O)[C@H](CC(C)C)NC(=O)[C@H](Cc1c[nH]c2ccccc12)NC(=O)[C@H](CCC(N)=O)NC(=O)[C@@H](NC(=O)[C@@H](NC(=O)[C@@H]1CSSC[C@H](NC(=O)[C@@H](N)CCCCN)C(=O)N[C@@H](CC(N)=O)C(=O)N[C@@H]([C@@H](C)O)C(=O)N[C@@H](C)C(=O)N[C@@H]([C@@H](C)O)C(=O)N1)[C@@H](C)O)C(C)C)C(=O)N[C@@H](Cc1ccc(O)cc1)C(=O)N[C@@H](CCC(N)=O)C(=O)N[C@@H](C)C(=O)N[C@H](C(=O)N[C@@H](CC(=O)O)C(=O)N[C@@H](CCCCN)C(=O)N[C@@H](CC(=O)O)C(=O)N[C@@H](CCCCN)C(=O)N[C@@H](CC(=O)O)C(=O)N[C@@H](CC(N)=O)C(=O)N[C@H](C(=O)N[C@@H](C)C(=O)N1CCC[C@H]1C(=O)N1CCC[C@H]1C(=O)N[C@H](C(=O)N[C@@H](CC(N)=O)C(=O)N[C@H](C(=O)NCC(=O)N[C@@H](CO)C(=O)N[C@@H](CC(N)=O)C(=O)NCC(=O)N1C[C@H](O)C[C@H]1C(N)=O)C(C)C)[C@@H](C)O)C(C)C)[C@@H](C)O` [compound 338] (H-KCNTATCTVQWLAHQIYQATDKDKDNVAPPTNVGSNG[Hyp]-NH2; disulfide 2-7; N-terminus assumed), for which the “Max ThT signal (%)” value in series [1] was found to be 2.950%. On hAM1 receptor, the EC50 was more than 5 µM.

Consider `CC[C@H](C)[C@H](NC(=O)[C@H](CCC(N)=O)NC(=O)[C@H](Cc1c[nH]cn1)NC(=O)[C@H](C)NC(=O)[C@H](CC(C)C)NC(=O)[C@H](Cc1c[nH]c2ccccc12)NC(=O)[C@H](CCC(N)=O)NC(=O)[C@@H](NC(=O)[C@@H](NC(=O)[C@@H]1CSSC[C@H](NC(=O)CN)C(=O)N[C@@H](CCCNC(=N)N)C(=O)N[C@@H]([C@@H](C)O)C(=O)NCC(=O)N[C@@H]([C@@H](C)O)C(=O)N1)[C@@H](C)O)C(C)C)C(=O)N[C@@H](Cc1ccc(O)cc1)C(=O)N[C@@H](CCC(N)=O)C(=O)N[C@@H](Cc1ccccc1)C(=O)N[C@H](C(=O)N[C@@H](CC(=O)O)C(=O)N[C@@H](CCCCN)C(=O)N[C@@H](CC(=O)O)C(=O)N[C@@H](CCCCN)C(=O)N[C@@H](CC(=O)O)C(=O)N[C@@H](CC(N)=O)C(=O)N[C@H](C(=O)N[C@@H](C)C(=O)N1CCC[C@H]1C(=O)N[C@@H](CCCNC(=N)N)C(=O)N[C@@H](CO)C(=O)N[C@@H](CCCCN)C(=O)N[C@H](C(=O)NCC(=O)N1CCC[C@H]1C(=O)N[C@@H](CCC(N)=O)C(=O)NCC(=O)N[C@@H](Cc1ccc(O)cc1)C(N)=O)C(C)C)C(C)C)[C@@H](C)O` [compound 344] (H-GCRTGTCTVQWLAHQIYQFTDKDKDNVAPRSKVGPQGY-NH2; disulfide 2-7; N-terminus assumed), for which the “Max ThT signal (%)” value in series [1] was found to be 13.350%. Further, the EC50 at hAM1 receptor is more than 5 µM.

In the case of `CC[C@H](C)[C@H](NC(=O)[C@H](CCC(N)=O)NC(=O)[C@H](Cc1c[nH]cn1)NC(=O)[C@H](C)NC(=O)[C@H](CC(C)C)NC(=O)[C@H](Cc1c[nH]c2ccccc12)NC(=O)[C@H](CCC(N)=O)NC(=O)[C@@H](NC(=O)[C@@H](NC(=O)[C@@H]1CSSC[C@H](NC(=O)CN)C(=O)N[C@@H](CCCNC(=N)N)C(=O)N[C@@H]([C@@H](C)O)C(=O)NCC(=O)N[C@@H]([C@@H](C)O)C(=O)N1)[C@@H](C)O)C(C)C)C(=O)N[C@@H](Cc1ccc(O)cc1)C(=O)N[C@@H](CCC(N)=O)C(=O)N[C@@H](Cc1ccccc1)C(=O)N[C@H](C(=O)N[C@@H](CC(=O)O)C(=O)N[C@@H](CCCCN)C(=O)N[C@@H](CC(=O)O)C(=O)N[C@@H](CCCCN)C(=O)N[C@@H](CC(=O)O)C(=O)N[C@@H](CC(N)=O)C(=O)N[C@H](C(=O)N[C@@H](C)C(=O)N1CCC[C@H]1C(=O)N[C@@H](CCCNC(=N)N)C(=O)N[C@H](C(=O)N[C@@H](CCCCN)C(=O)N[C@H](C(=O)NCC(=O)N1CCC[C@H]1C(=O)N[C@@H](CCC(N)=O)C(=O)NCC(=O)N1C[C@H](O)C[C@H]1C(N)=O)C(C)C)[C@@H](C)O)C(C)C)[C@@H](C)O` [compound 349] (H-GCRTGTCTVQWLAHQIYQFTDKDKDNVAPRTKVGPQG[Hyp]-NH2; disulfide 2-7; N-terminus assumed), the “Max ThT signal (%)” value in series [1] amounted to 15.250%. Besides, at hAM1 receptor, the EC50 was more than 5 µM.

On to `CC[C@H](C)[C@@H]1NC(=O)[C@H](CCCNC(=N)N)NC(=O)[C@@H](NC(=O)CN)CSSC[C@@H](C(=O)N[C@H](C(=O)N[C@H](C(=O)N[C@@H](CCC(N)=O)C(=O)N[C@@H](Cc2c[nH]c3ccccc23)C(=O)N[C@@H](CC(C)C)C(=O)N[C@@H](C)C(=O)N[C@@H](Cc2c[nH]cn2)C(=O)N[C@@H](CCC(N)=O)C(=O)N[C@H](C(=O)N[C@@H](Cc2ccc(O)cc2)C(=O)N[C@@H](CCC(N)=O)C(=O)N[C@@H](Cc2ccccc2)C(=O)N[C@H](C(=O)N[C@@H](CC(=O)O)C(=O)N[C@@H](CCCCN)C(=O)N[C@@H](Cc2ccccc2)C(=O)N[C@@H](CCCCN)C(=O)N[C@@H](CC(=O)O)C(=O)N[C@@H](CC(N)=O)C(=O)N[C@H](C(=O)N[C@@H](C)C(=O)N2CCC[C@H]2C(=O)N[C@@H](CCCNC(=N)N)C(=O)N[C@@H](CO)C(=O)N[C@@H](CCCCN)C(=O)N[C@H](C(=O)N[C@@H](CO)C(=O)N2CCC[C@H]2C(=O)N[C@@H](CCC(N)=O)C(=O)N[C@H](C(=O)N2C[C@H](O)C[C@H]2C(N)=O)[C@@H](C)O)[C@@H](C)CC)C(C)C)[C@@H](C)O)[C@@H](C)CC)C(C)C)[C@@H](C)O)NC(=O)[C@H]([C@@H](C)O)NC(=O)CNC1=O` [compound 351] (H-GCRIGTCTVQWLAHQIYQFTDKFKDNVAPRSKISPQT[Hyp]-NH2; disulfide 2-7; N-terminus assumed), for which, in series [1], the “Max ThT signal (%)” value was 7.200%. For the same compound, at hAM1 receptor, the EC50 is more than 5 µM.

Values taken from patent US12139520B2 (priority 2020, dated 2024).
